# Experimental data: article PMC5909127, “Optimization of a “bump-and-hole” approach to allele-selective BET bromodomain inhibition” (Chemical Science, 2018)
# Experiments:
# BRD3 BD1 WT = BRD3 BD1 WT (Homo sapiens, UniProt Q15059); test: ITC; assay type: binding
# BRD4 BD2 L/V [1] = target: T1, BRD4 BD2 L/V (Homo sapiens, UniProt O60885, L387V); test: ITC; assay type: binding
# BRD4 BD1 WT [2] = target: T2, BRD4 BD1 WT (Homo sapiens, UniProt O60885); test: ITC; assay type: binding
# BRD3 BD2 WT = BRD3 BD2 WT (Homo sapiens, UniProt Q15059); test: ITC; assay type: binding
# BRD4 BD1 L/V [3] = target: T3, BRD4 BD1 L/V (Homo sapiens, UniProt O60885, L94V); test: competitive AlphaLISA; assay type: binding
# BRD4 BD2 L/V [4] = target: T1, BRD4 BD2 L/V; test: competitive AlphaLISA; assay type: binding
# [5] = tested on: L/V somatic BET bromodomains; test: ITC
# BRD4 BD1 L/V [6] = target: T3, BRD4 BD1 L/V; test: ITC; assay type: binding; settings: for Kd: Kd BRD4 BD1 L/V
# BRD4 BD1 WT [7] = target: T2, BRD4 BD1 WT; test: competitive AlphaLISA; assay type: binding
# [8] = target: WT BET bromodomains (BD1 and BD2 of BRD2, BRD3 and BRD4); test: competitive AlphaLISA (Bio-JQ1 displacement); assay type: binding, human; settings: mean and SD of all somatic bromodomains; active enantiomer concentration
# BRD2 BD1 WT = BRD2 BD1 WT (Homo sapiens, UniProt P25440); test: ITC; assay type: binding
# BRDT BD2 L/V = BRDT BD2 L/V (Homo sapiens, UniProt Q58F21, L306V); test: competitive AlphaLISA; assay type: binding
# BRD2 BD2 L/V = BRD2 BD2 L/V (Homo sapiens, UniProt P25440, L383V); test: ITC; assay type: binding
# BRD3 BD2 L/V = BRD3 BD2 L/V (Homo sapiens, UniProt Q15059, L345V); test: ITC; assay type: binding
# BRD4 BD2 WT = BRD4 BD2 WT (Homo sapiens, UniProt O60885); test: ITC; assay type: binding
# BRD2 BD2 WT = BRD2 BD2 WT (Homo sapiens, UniProt P25440); test: ITC; assay type: binding
# BRD3 BD1 L/V = BRD3 BD1 L/V (Homo sapiens, UniProt Q15059, L70V); test: ITC; assay type: binding
# BRD2 BD1 L/V = BRD2 BD1 L/V (Homo sapiens, UniProt P25440, L110V); test: ITC; assay type: binding
# Chain of BRD2 BD1 L/V (P25440 71-176 L110V limits assumed): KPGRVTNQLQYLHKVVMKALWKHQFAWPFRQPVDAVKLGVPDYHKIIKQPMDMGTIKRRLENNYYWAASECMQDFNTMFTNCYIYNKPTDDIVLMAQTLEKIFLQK
# Chain of BRD3 BD2 L/V (Q15059 306-416 L345V limits assumed): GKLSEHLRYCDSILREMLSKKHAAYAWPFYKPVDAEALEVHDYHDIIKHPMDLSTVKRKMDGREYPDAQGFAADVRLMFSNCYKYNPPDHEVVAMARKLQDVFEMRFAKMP
# Chain of BRD3 BD1 L/V (Q15059 24-144 L70V limits assumed): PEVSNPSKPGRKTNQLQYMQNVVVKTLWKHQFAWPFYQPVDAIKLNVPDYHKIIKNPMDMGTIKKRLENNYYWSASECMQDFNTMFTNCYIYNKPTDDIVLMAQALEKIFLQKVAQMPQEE
# Chain of BRD2 BD2 L/V (P25440 344-455 L383V): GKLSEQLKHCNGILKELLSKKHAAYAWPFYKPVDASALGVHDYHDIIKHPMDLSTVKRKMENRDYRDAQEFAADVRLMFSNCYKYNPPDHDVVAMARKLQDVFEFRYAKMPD
# Chain of BRD3 BD1 WT (Q15059 24-144): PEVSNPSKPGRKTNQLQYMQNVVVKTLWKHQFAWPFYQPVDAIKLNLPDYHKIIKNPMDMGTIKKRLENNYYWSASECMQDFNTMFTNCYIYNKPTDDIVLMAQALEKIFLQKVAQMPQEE
# Chain of BRD3 BD2 WT (Q15059 306-416): as the sequence (Q15059 306-416 L345V limits assumed) above, with V40L counted along it
# Chain of BRD2 BD1 WT (P25440 71-176): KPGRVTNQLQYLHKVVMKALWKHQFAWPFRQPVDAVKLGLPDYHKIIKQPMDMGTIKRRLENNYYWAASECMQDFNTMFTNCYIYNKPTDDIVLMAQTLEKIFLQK
# Chain of BRD2 BD2 WT (P25440 344-455): as the sequence (P25440 344-455 L383V) above, with V40L counted along it
structure (smiles),measurement,setting,value
CC[C@@H](C(=O)OC)[C@@H]1N=C(c2ccc(Cl)cc2)c2ccc(OC)cc2-n2c(C)nnc21 (racemic) [Compound 8],Kd,BRD3 BD1 WT,29 µM
same,Kd,BRD4 BD2 L/V [1],0.74 µM
same,selectivity plot WT 2.1 vs L/V 4.2,BRD4 BD2 L/V [1]; Kd BRD2 BD1 WT / Kd BRD4 BD2 L/V,> 80
same,selectivity plot WT 2.2 vs L/V 4.2,BRD4 BD2 L/V [1]; Kd BRD2 BD2 WT / Kd BRD4 BD2 L/V,> 80
same,selectivity plot WT 3.1 vs L/V 4.2,BRD4 BD2 L/V [1]; Kd BRD3 BD1 WT / Kd BRD4 BD2 L/V,40
same,selectivity plot WT 3.2 vs L/V 4.2,BRD4 BD2 L/V [1]; Kd BRD3 BD2 WT / Kd BRD4 BD2 L/V,> 80
same,selectivity plot WT 4.1 vs L/V 4.2,BRD4 BD2 L/V [1]; Kd BRD4 BD1 WT / Kd BRD4 BD2 L/V,> 80
same,selectivity plot WT 4.2 vs L/V 4.2,BRD4 BD2 L/V [1]; Kd BRD4 BD2 WT / Kd BRD4 BD2 L/V,> 80
same,Kd,BRD4 BD1 WT [2],> 60 µM
same,Kd,BRD3 BD2 WT,> 60 µM
same,IC50,BRD4 BD1 L/V [3]; AlphaLISA pIC50 Value BRD4 BD1 L/V,0.126 µM
same,ΔpIC50 BRD4 BD1,"BRD4 BD1 L/V [3]; L/V minus WT, total compound concentration",1.4
same,IC50,"BRD4 BD1 L/V [3]; pIC50 BRD4 BD1 L/V, separated enantiomers test, total compound concentration",2 µM
same,IC50,BRD4 BD2 L/V [4],0.2 µM
same,ITC pKd ± SD Δ,[5]; L/V minus WT,>2.2 ± 0.2
same,selectivity for the L/V mutant over wild-type,"[5]; across the BET subfamily, ITC",> 100 fold
same,ITC pKd ± SD L/V,[5]; mean and SD of all somatic bromodomains,6.4 ± 0.2
same,N BRD4 BD1 L/V,"BRD4 BD1 L/V [6]; ITC stoichiometry, total compound concentration",1.42 ±0.02
same,ΔH BRD4 BD1 L/V,"BRD4 BD1 L/V [6]; ITC, total compound concentration",-14.6 ± 0.42 kJ/mol
same,selectivity plot WT 2.1 vs L/V 4.1,BRD4 BD1 L/V [6]; Kd BRD2 BD1 WT / Kd BRD4 BD1 L/V,> 110
same,selectivity plot WT 2.2 vs L/V 4.1,BRD4 BD1 L/V [6]; Kd BRD2 BD2 WT / Kd BRD4 BD1 L/V,> 100
same,selectivity plot WT 3.1 vs L/V 4.1,BRD4 BD1 L/V [6]; Kd BRD3 BD1 WT / Kd BRD4 BD1 L/V,60
same,selectivity plot WT 3.2 vs L/V 4.1,BRD4 BD1 L/V [6]; Kd BRD3 BD2 WT / Kd BRD4 BD1 L/V,> 110
same,Kd,"BRD4 BD1 L/V [6]; ITC of separated enantiomers and racemates, total compound concentration",0.84 ± 0.17 µM
same,Kd,"BRD4 BD1 L/V [6]; ITC, 30°C",0.53 µM
same,selectivity plot WT 4.1 vs L/V 4.1,BRD4 BD1 L/V [6]; Kd BRD4 BD1 WT / Kd BRD4 BD1 L/V,> 100
same,selectivity plot WT 4.2 vs L/V 4.1,BRD4 BD1 L/V [6]; Kd BRD4 BD2 WT / Kd BRD4 BD1 L/V,> 100
same,IC50,BRD4 BD1 WT [7]; AlphaLISA pIC50 Value BRD4 BD1 WT,1.58 µM
same,IC50,"BRD4 BD1 WT [7]; pIC50 BRD4 BD1 WT, separated enantiomers test, total compound concentration",50.1 µM
same,AlphaLISA pIC50 ± SD WT,[8],5.5 ± 0.2
same,Kd,BRD2 BD1 WT,> 60 µM
same,IC50,BRDT BD2 L/V,0.398 µM
same,Kd,BRD2 BD2 L/V,0.3 µM
same,selectivity plot WT 2.1 vs L/V 2.2,BRD2 BD2 L/V; Kd BRD2 BD1 WT / Kd BRD2 BD2 L/V,> 200
same,selectivity plot WT 2.2 vs L/V 2.2,BRD2 BD2 L/V; Kd BRD2 BD2 WT / Kd BRD2 BD2 L/V,> 200
same,selectivity plot WT 3.1 vs L/V 2.2,BRD2 BD2 L/V; Kd BRD3 BD1 WT / Kd BRD2 BD2 L/V,100
same,selectivity plot WT 3.2 vs L/V 2.2,BRD2 BD2 L/V; Kd BRD3 BD2 WT / Kd BRD2 BD2 L/V,> 200
same,selectivity plot WT 4.1 vs L/V 2.2,BRD2 BD2 L/V; Kd BRD4 BD1 WT / Kd BRD2 BD2 L/V,> 200
same,selectivity plot WT 4.2 vs L/V 2.2,BRD2 BD2 L/V; Kd BRD4 BD2 WT / Kd BRD2 BD2 L/V,> 200
same,Kd,BRD3 BD2 L/V,0.41 µM
same,selectivity plot WT 2.1 vs L/V 3.2,BRD3 BD2 L/V; Kd BRD2 BD1 WT / Kd BRD3 BD2 L/V,> 150
same,selectivity plot WT 2.2 vs L/V 3.2,BRD3 BD2 L/V; Kd BRD2 BD2 WT / Kd BRD3 BD2 L/V,> 150
same,selectivity plot WT 3.1 vs L/V 3.2,BRD3 BD2 L/V; Kd BRD3 BD1 WT / Kd BRD3 BD2 L/V,70
same,selectivity plot WT 3.2 vs L/V 3.2,BRD3 BD2 L/V; Kd BRD3 BD2 WT / Kd BRD3 BD2 L/V,> 150
same,selectivity plot WT 4.1 vs L/V 3.2,BRD3 BD2 L/V; Kd BRD4 BD1 WT / Kd BRD3 BD2 L/V,> 150
same,selectivity plot WT 4.2 vs L/V 3.2,BRD3 BD2 L/V; Kd BRD4 BD2 WT / Kd BRD3 BD2 L/V,> 150
same,Kd,BRD4 BD2 WT,> 60 µM
same,Kd,BRD2 BD2 WT,> 60 µM
same,Kd,BRD3 BD1 L/V,0.27 µM
same,selectivity plot WT 2.1 vs L/V 3.1,BRD3 BD1 L/V; Kd BRD2 BD1 WT / Kd BRD3 BD1 L/V,> 230
same,selectivity plot WT 2.2 vs L/V 3.1,BRD3 BD1 L/V; Kd BRD2 BD2 WT / Kd BRD3 BD1 L/V,> 230
same,selectivity plot WT 3.1 vs L/V 3.1,BRD3 BD1 L/V; Kd BRD3 BD1 WT / Kd BRD3 BD1 L/V,110
same,selectivity plot WT 3.2 vs L/V 3.1,BRD3 BD1 L/V; Kd BRD3 BD2 WT / Kd BRD3 BD1 L/V,> 230
same,selectivity plot WT 4.1 vs L/V 3.1,BRD3 BD1 L/V; Kd BRD4 BD1 WT / Kd BRD3 BD1 L/V,> 230
same,selectivity plot WT 4.2 vs L/V 3.1,BRD3 BD1 L/V; Kd BRD4 BD2 WT / Kd BRD3 BD1 L/V,> 230
same,Kd,BRD2 BD1 L/V,0.34 µM
same,selectivity plot WT 2.1 vs L/V 2.1,BRD2 BD1 L/V; Kd BRD2 BD1 WT / Kd BRD2 BD1 L/V,> 180
same,selectivity plot WT 2.2 vs L/V 2.1,BRD2 BD1 L/V; Kd BRD2 BD2 WT / Kd BRD2 BD1 L/V,> 180
same,selectivity plot WT 3.1 vs L/V 2.1,BRD2 BD1 L/V; Kd BRD3 BD1 WT / Kd BRD2 BD1 L/V,90
same,selectivity plot WT 3.2 vs L/V 2.1,BRD2 BD1 L/V; Kd BRD3 BD2 WT / Kd BRD2 BD1 L/V,> 180
same,selectivity plot WT 4.1 vs L/V 2.1,BRD2 BD1 L/V; Kd BRD4 BD1 WT / Kd BRD2 BD1 L/V,> 180
same,selectivity plot WT 4.2 vs L/V 2.1,BRD2 BD1 L/V; Kd BRD4 BD2 WT / Kd BRD2 BD1 L/V,> 180
